Legend:
[1] = system: regulatory T-cells; test: Regulatory T-cell and FOXp3 analysis in T-cell cultures (FACS); type: cell-based, human; settings: T-cell culture
Experimental: Regulatory T-cells in cultures were identified using the Human Regulatory T-cell Cocktail (BD Pharmingen™) and analyzed using FACS. Briefly, cells were washed into BD stain buffer (BSA) with human Fc block (EMD Millipore) and incubated on ice for 30 min. Cells were then stained with fluorescently labeled Human Regulatory T-cell Cocktail (BD Pharmingen™, 1:100 in BD stain buffer (BSA)) or with appropriate isotype controls (ice, dark, 40 min). Cells were then washed twice in BD stain buffer (BSA) and analyzed on an LSRII flow cytometer. Regulatory T-cells were identified as CD4+, CD25+ and CD127 LOW.
T-cells were prepared in the same manner as for intracellular staining as above, where they were fixed and permeabilized and stained with an anti-FOXp3 antibody (BD Biosciences) and analyzed by FACS. In brief, after incubation in BD stain buffer (FBS) with Human Fc block (Miltenyi Biotec) on ice for 30 min as described previously, cells were stained with anti-CD4 antibody for 20 min in the dark (RT). An equal volume of BD stain buffer (FBS) was added and samples were spun and washed once in BD stain buffer (FBS) followed by resuspension in cold BD Cytofix™ fixation buffer for 30 min at RT. Cells were pelleted washed twice in BD stain buffer (FBS), resuspended, and incubated in BD Perm/Wash™ buffer at RT for 30 min. […]

[2] = system: regulatory T-cells (CD3+, CD4+, CD25+, FOXp3+); test: Regulatory T-cells in blood of rats dosed by oral gavage for 42 days (flow cytometry); type: in vivo, Sprague-Dawley rats; settings: for Treg % Gated, percent change relative to pretest means: rat
Experimental: Sprague-Dawley rats (CD®[Crl:CD®(SD)] were administered 2-deoxy-2-fluoro-L-fucose by oral gavage daily for 42 consecutive days at doses of 0, 125, 500 or 2000 mg/kg/day. Blood samples (0.4 mL/timepoint) were collected in sodium heparin at pretest and days 2, 7, 22, 43, 49, 56, and 71 of the study. Samples were processed within 24 hours of collection. Aliquots of the specimens were stained with predetermined volumes of previously tested and titered monoclonal antibodies specific for each marker. The red cells in each tube were lysed and after staining the cells were fixed with Versalyse Lysis Buffer solution (Beckman Coulter). The prepared specimens were analyzed on a Beckman-Coulter FC 500 MPL flow cytometer.

[3] = system: A20 tumor cells; test: A20 mouse lymphoma study, survival; type: in vivo, BALB/c mice
Experimental: A20 cells (ATCC) were cultured in RPMI 1640 with 10% FBS, 10 mM HEPES, 1 mM sodium pyruvate, 50 μM 2-mercaptoethanol and penicillin (100 U/ml)/streptomycin (100 μg/ml) (PS). All mice (BALB/c, n=6/group) were implanted with 1×10^5 A20 tumor cells (i.v.) and were divided into four groups: untreated; treated with 2FF only; treated with anti-PD1 antibody only; and treated with a combination of 2FF with anti-PD1 antibody. 2FF treatment groups received drinking water containing 20 mM 2FF beginning on the day of tumor implantand continued throughout the study. Mice not receiving 2FF were provided with normal drinking water. Anti-PD1 antibody (Ebiosciences, clone J43) treatment groups received three doses of 5 mg/kg every three days starting on day 5 post tumor implant. […] This is compared to only 17% survival in the untreated and the anti-PD1 alone treated groups after about 40 days of treatment lasting to the end of the experiment, and also compared to only 17% survival in 2FF alone treated group after 70 days of treatment also lasting to the end of the experiment at ˜90 days.

SMILES: C[C@@H]1OC(O)[C@@H](F)[C@H](O)[C@@H]1O (stereo partly drawn) [2-deoxy-2-fluoro-L-fucose]
- regulatory T-cell populations (percent of total cells) ([1]; CD4+, CD25+, CD127 LOW): decrease in regulatory T-cell populations
- expression of FOXp3+ in treated T-cells ([1]; gated on CD4+): decreased expression of FOXp3+
- Treg % Gated, percent change relative to pretest means ([2]; F, 125 mg/kg/day oral gavage, Day 2): −54%
- Treg % Gated, percent change relative to pretest means ([2]; F, 125 mg/kg/day oral gavage, Day 7): −67%
- Treg % Gated, percent change relative to pretest means ([2]; F, 125 mg/kg/day oral gavage, Day 22): −61%
- Treg % Gated, percent change relative to pretest means ([2]; F, 125 mg/kg/day oral gavage, Day 43): −64%
- Treg % Gated, percent change relative to pretest means ([2]; F, 125 mg/kg/day oral gavage, Day 49, recovery period): −40%
- Treg % Gated, percent change relative to pretest means ([2]; F, 125 mg/kg/day oral gavage, Day 56, recovery period): −51%
- Treg % Gated, percent change relative to pretest means ([2]; F, 125 mg/kg/day oral gavage, Day 71, recovery period): −45%
- Treg % Gated, percent change relative to pretest means ([2]; F, 500 mg/kg/day oral gavage, Day 2): −56%
- Treg % Gated, percent change relative to pretest means ([2]; F, 500 mg/kg/day oral gavage, Day 7): −60%
- Treg % Gated, percent change relative to pretest means ([2]; F, 500 mg/kg/day oral gavage, Day 22): −60%
- Treg % Gated, percent change relative to pretest means ([2]; F, 500 mg/kg/day oral gavage, Day 43): −50%
- Treg % Gated, percent change relative to pretest means ([2]; F, 500 mg/kg/day oral gavage, Day 49, recovery period): −43%
- Treg % Gated, percent change relative to pretest means ([2]; F, 500 mg/kg/day oral gavage, Day 56, recovery period): −38%
- Treg % Gated, percent change relative to pretest means ([2]; F, 500 mg/kg/day oral gavage, Day 71, recovery period): −40%
- Treg % Gated, percent change relative to pretest means ([2]; F, 2000 mg/kg/day oral gavage, Day 2): −41%
- Treg % Gated, percent change relative to pretest means ([2]; F, 2000 mg/kg/day oral gavage, Day 7): −39%
- Treg % Gated, percent change relative to pretest means ([2]; F, 2000 mg/kg/day oral gavage, Day 22): −43%
- Treg % Gated, percent change relative to pretest means ([2]; F, 2000 mg/kg/day oral gavage, Day 43): −28%
- Treg % Gated, percent change relative to pretest means ([2]; F, 2000 mg/kg/day oral gavage, Day 49, recovery period): −19%
- Treg % Gated, percent change relative to pretest means ([2]; F, 2000 mg/kg/day oral gavage, Day 56, recovery period): −16%
- Treg % Gated, percent change relative to pretest means ([2]; F, 2000 mg/kg/day oral gavage, Day 71, recovery period): −26%
- Treg % Gated, percent change relative to pretest means ([2]; M, 125 mg/kg/day oral gavage, Day 2): −44%
- Treg % Gated, percent change relative to pretest means ([2]; M, 125 mg/kg/day oral gavage, Day 7): −64%
- Treg % Gated, percent change relative to pretest means ([2]; M, 125 mg/kg/day oral gavage, Day 22): −65%
- Treg % Gated, percent change relative to pretest means ([2]; M, 125 mg/kg/day oral gavage, Day 43): −59%
- Treg % Gated, percent change relative to pretest means ([2]; M, 125 mg/kg/day oral gavage, Day 49, recovery period): −46%
- Treg % Gated, percent change relative to pretest means ([2]; M, 125 mg/kg/day oral gavage, Day 56, recovery period): −47%
- Treg % Gated, percent change relative to pretest means ([2]; M, 125 mg/kg/day oral gavage, Day 71, recovery period): −42%
- Treg % Gated, percent change relative to pretest means ([2]; M, 500 mg/kg/day oral gavage, Day 2): −61%
- Treg % Gated, percent change relative to pretest means ([2]; M, 500 mg/kg/day oral gavage, Day 7): −63%
- Treg % Gated, percent change relative to pretest means ([2]; M, 500 mg/kg/day oral gavage, Day 22): −64%
- Treg % Gated, percent change relative to pretest means ([2]; M, 500 mg/kg/day oral gavage, Day 43): −58%
- Treg % Gated, percent change relative to pretest means ([2]; M, 500 mg/kg/day oral gavage, Day 49, recovery period): −48%
- Treg % Gated, percent change relative to pretest means ([2]; M, 500 mg/kg/day oral gavage, Day 56, recovery period): −47%
- Treg % Gated, percent change relative to pretest means ([2]; M, 500 mg/kg/day oral gavage, Day 71, recovery period): −48%
- Treg % Gated, percent change relative to pretest means ([2]; M, 2000 mg/kg/day oral gavage, Day 2): −42%
- Treg % Gated, percent change relative to pretest means ([2]; M, 2000 mg/kg/day oral gavage, Day 7): −43%
- Treg % Gated, percent change relative to pretest means ([2]; M, 2000 mg/kg/day oral gavage, Day 22): −51%
- Treg % Gated, percent change relative to pretest means ([2]; M, 2000 mg/kg/day oral gavage, Day 43): −29%
- Treg % Gated, percent change relative to pretest means ([2]; M, 2000 mg/kg/day oral gavage, Day 49, recovery period): −6%
- Treg % Gated, percent change relative to pretest means ([2]; M, 2000 mg/kg/day oral gavage, Day 56, recovery period): −12%
- Treg % Gated, percent change relative to pretest means ([2]; M, 2000 mg/kg/day oral gavage, Day 71, recovery period): −13%
- relative proportion of regulatory T-cells (CD3+, CD4+, CD25+, FOXp3+) relative to pretest values ([2]; rats, all dosed groups (125, 500, 2000 mg/kg/day), beginning at Day 2): tended to decrease
- survival compared to the untreated group ([3]; BALB/c mice, i.v. A20 cells, 20 mM 2FF in drinking water, anti-PD1 5 mg/kg q3dx3 from day 5): increased survival compared to the untreated group
- survival of the mice ([3]; after 70 days of treatment lasting to end of experiment at ~90 days, 20 mM 2FF drinking water): 17%
